The series can be described thus: Administration of memantine in 2 mg weekly increments to a patient suffering from glaucoma, tolerance observed. To be noted: 2 mg tablet for one week. The format is in vivo. The protocol: In certain cases, the initial administration of 5 mg of memantine, or the increase in the dosage by 5 mg increments, may be more than can be tolerated by the patient. […] The term adverse event refers to any undesirable side effect or toxic effect associated with memantine. In relation to embodiments of this type, it is preferable that the dose of memantine is increase by an increment of about 0.25 to about 0.5 mg each day until the maintenance dose is reached.
To a patient suffering from glaucoma, is administered a tablet comprising 2 mg of memantine is administered for one week. The patient then receives a tablet comprising a 4 mg dose for one week. The dose is increased by 2 mg each week until a 10 mg dose is reached at the beginning of the fifth week. […] The tablet comprising 10 mg of memantine is administered daily for as long as the drug is needed.
To a patient suffering from glaucoma, is administered a tablet comprising 2 mg of memantine is administered for one week. The patient then receives a tablet comprising a 4 mg dose for one week. The dose is increased by 2 mg each week until a 20 mg dose is reached at the beginning of the tenth week. […] The tablet comprising 20 mg of memantine is administered daily for as long as the drug is needed.

The values below come from patent publication US20060251717A1, “Memantine Oral Dosage Forms” (priority 2003, published 2006).

With `CC12CC3CC(C)(C1)CC(N)(C3)C2` [memantine], the “tolerance of the drug” value by setting is: (dose increased by 2 mg each week until 10 mg at beginning of fifth week, first four weeks of administration) “improved tolerance”; (dose increased by 2 mg each week until 20 mg at beginning of tenth week, first nine weeks of administration) “improved tolerance”.
